Experiments:
XIAP BIR-3 = target: T1, XIAP BIR-3 (Homo sapiens, UniProt P98170); test: Fluorescence polarization binding affinity to XIAP BIR-3 (competition with AbuRPF-K(5-Fam)-NH2); conditions: 5 nM labeled peptide, 40 nM BIR3, 15 min at RT, pH 7.5; reported as ranges
T1 construct: 40 nM of the respective IAP BIR3
Outline: (§1)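 Test peptides at varied concentrations competed with 5 nM fluorescent Smac-mimetic tracer for 40 nM BIR3 domain, 15 min at RT in 0.1M potassium phosphate pH 7.5 with […] bovine g-globulin. Polarization (mP) read at 485/520 nm; KD reported in bins (A=<0.1 μM, B=0.1–1 μM, C>1–10 μM, D=>10 μM).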

cIAP-1 BIR-3 = cIAP-1 BIR-3 (Homo sapiens, UniProt Q13490); test: Fluorescence polarization binding affinity to cIAP-1 BIR-3 (competition with AbuRPF-K(5-Fam)-NH2); conditions: 5 nM labeled peptide, 40 nM BIR3, 15 min at RT, pH 7.5; reported as ranges; read-out: KD (c-IAP-1 BIR3)
Outline: as §1

SK-OV-3 cells = test: Growth inhibition of ovarian cancer cell line SK-OV-3 (MTT assay, cell survival); assay type: cell-based; conditions: Homo sapiens, drug concentration that results in 50% cell survival, 72 hrs incubation, reported as ranges
Outline: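 After overnight seeding in McCoy's medium with 10% FBS, SK-OV-3 cells were exposed to compound at 0.003-10 μM for 72 hrs at 37° C. MTT was then added for 3 h, with DMSO solubilization and OD read at 535 nm. CC50 is the concentration giving 50% survival relative to untreated control, reported as ranges.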

T1 sequence (P98170 241-356 limits assumed): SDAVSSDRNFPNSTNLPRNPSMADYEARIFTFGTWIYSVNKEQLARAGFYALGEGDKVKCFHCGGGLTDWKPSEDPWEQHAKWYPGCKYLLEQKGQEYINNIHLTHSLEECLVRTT
Sequence of cIAP-1 BIR-3 (Q13490 266-352 limits assumed): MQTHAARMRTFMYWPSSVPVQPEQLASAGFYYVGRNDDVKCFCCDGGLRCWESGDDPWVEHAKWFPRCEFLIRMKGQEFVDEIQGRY

| Kd (XIAP BIR-3) [µM] | Kd (cIAP-1 BIR-3) [µM] | Compound | CC50 (SK-OV-3 cells) [µM] |
| --- | --- | --- | --- |
| < 0.1 | < 0.1 | CN[C@@H](C)C(=O)N[C@H](C(=O)N1CC[C@@H]2[C@H]1[C@@H](c1c[nH]c3cc(F)ccc13)CN2C1CCCC1)C(C)(C)C [Example 4] | < 0.1 |
| > 10 | > 10 | CN[C@@H](C)C(=O)N[C@H](C(=O)N1CC[C@H]2NC[C@@H](c3c[nH]c4ccccc34)[C@H]21)C1CCCCC1 [Example 1, N-{1S-Cyclohexyl-2-[(3aR,6aR)-6R-(1H-indol-3-yl)-hexahydro-pyrrolo[3,2-b]pyrrol-1-yl]-2-oxo-ethyl}-2S-methylamino-propionamide] | 1 to 10 |
